Source: article PMC12892976, “Alkylation-based optimization of antifungal FPPS inhibitors yields a potent, broad-spectrum lipophilic zoledronate derivative” (mBio, 2025)

Tests used:
Type in all cases: cell-based
Mucor circinelloides = assay: MIC broth microdilution (CLSI); conditions: Mucor circinelloides 80-14-240-5007
Procedure: (§1) Antifungal susceptibility was determined by broth microdilution according to the CLSI guidelines described in M27-Ed4 ([16]).

Rhizopus oryzae = assay: MIC broth microdilution (CLSI); conditions: Rhizopus oryzae 04-14-364-1703
Procedure: as §1

Cryptococcus gattii [1] = assay: MIC broth microdilution (CLSI); conditions: Cryptococcus gattii PNG27
Procedure: as §1

Fusarium oxysporum = assay: MIC broth microdilution (CLSI); conditions: Fusarium oxysporum 07-200-3012
Procedure: as §1

Lomentospora prolificans = assay: MIC broth microdilution (CLSI); conditions: Lomentospora prolificans 80-16-101-2445
Procedure: as §1

Candida parapsilosis = assay: MIC broth microdilution (CLSI); conditions: Candida parapsilosis ATCC 22018
Procedure: Antifungal susceptibility was determined by broth microdilution according to the CLSI guidelines described in M27-Ed4 ([16]). […] MFC was determined by back-plating drug-treated cultures from MIC broths onto SDA plates. The MFC was defined as the lowest concentration from which no colonies could be cultured.

Aspergillus niger [2] = assay: MIC broth microdilution (CLSI); conditions: Aspergillus niger 111
Procedure: as §1

Aspergillus terreus [3] = assay: MIC broth microdilution (CLSI); conditions: Aspergillus terreus 75-16-089-2500
Procedure: as §1

Aspergillus lentulus = assay: MIC broth microdilution (CLSI); conditions: Aspergillus lentulus DTO 341-G7
Procedure: as §1

Aspergillus felis = assay: MIC broth microdilution (CLSI); conditions: Aspergillus felis IHE87256683D6
Procedure: as §1

Aspergillus parafelis = assay: MIC broth microdilution (CLSI); conditions: Aspergillus parafelis DTO 341-F2
Procedure: as §1

[4] = tested on: Aspergillus frankstonensis; assay: MIC broth microdilution (CLSI); conditions: Aspergillus frankstonensis DTO 341-F3
Procedure: as §1

Epidermophyton floccosum = assay: MIC broth microdilution (CLSI); conditions: Epidermophyon floccosum R-113
Procedure: as §1

Paraphyton cookei = assay: MIC broth microdilution (CLSI); conditions: Paraphyton cookei R-639
Procedure: as §1

Cryptococcus gattii [5] = assay: checkerboard drug interaction (FICI, MICc);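 also: simplified diagonal checkerboard screen pairing antifungals with FPPS inhibitors, FICI computed under the Loewe additivity model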
Procedure: (§2) Drug interactions between antifungals and FPPS inhibitors were investigated using a simplified checkerboard diagonal screening method ([45]). […] FICIs were determined according to the Loewe additivity model ([17]).

Cryptococcus tetragattii = assay: checkerboard drug interaction (FICI, MICc);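 also: simplified diagonal checkerboard screen pairing antifungals with FPPS inhibitors, with FICI calculated under the Loewe additivity model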
Procedure: as §2

[6] = tested on: Cryptococcus deneoformans; assay: checkerboard drug interaction (FICI, MICc);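 also: simplified diagonal checkerboard screen pairing antifungals with FPPS inhibitors, FICI calculated under the Loewe additivity model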
Procedure: as §2

Fusarium solani = assay: checkerboard drug interaction (FICI, MICc);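 also: simplified diagonal checkerboard screen pairing antifungals with FPPS inhibitors, FICI derived under the Loewe additivity model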
Procedure: as §2

Pichia kudriavzevii = assay: checkerboard drug interaction (FICI, MICc);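 also: antifungal plus FPPS inhibitor interactions tested in a simplified diagonal checkerboard screen, with FICI calculated under the Loewe additivity model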
Procedure: as §2

Candida tropicalis = assay: checkerboard drug interaction (FICI, MICc);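 also: simplified diagonal checkerboard screen of antifungal plus FPPS inhibitor combinations, with FICI computed by the Loewe additivity model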
Procedure: as §2

Candida dubliniensis = assay: checkerboard drug interaction (FICI, MICc);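 also: simplified diagonal checkerboard screen pairing antifungals with FPPS inhibitors, FICI calculated under the Loewe additivity model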
Procedure: as §2

Aspergillus niger [7] = assay: checkerboard drug interaction (FICI, MICc);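 also: simplified diagonal checkerboard screen pairing antifungals with FPPS inhibitors, FICI calculated under the Loewe additivity model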
Procedure: as §2

Aspergillus terreus [8] = assay: checkerboard drug interaction (FICI, MICc);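 also: simplified diagonal checkerboard screen pairing antifungals with FPPS inhibitors, FICI derived by the Loewe additivity model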
Procedure: as §2

## CCCCCCCCCCn1cc[n+](CC(O)(P(=O)(O)O)P(=O)(O)O)c1 [10-ZOL, Decyl-zoledronate]
Mucor circinelloides
  MIC / MEC: 1 µg/mL
Rhizopus oryzae
  MIC / MEC: 4 µg/mL
Cryptococcus gattii [1]
  MIC / MEC: 0.5 µg/mL
Fusarium oxysporum
  MIC / MEC: 8 µg/mL
Lomentospora prolificans
  MIC / MEC: 2 µg/mL
Candida parapsilosis
  MIC / MEC: 1 µg/mL
Aspergillus niger [2]
  MIC / MEC: 4 µg/mL
Aspergillus terreus [3]
  MIC / MEC: 0.5 µg/mL
Aspergillus lentulus
  MIC / MEC: 2 µg/mL
Aspergillus felis
  MIC / MEC: 2 µg/mL
Aspergillus parafelis
  MIC / MEC: 4 µg/mL
[4]
  MIC / MEC: 1 µg/mL
Epidermophyton floccosum
  MIC / MEC: 0.5 µg/mL
Paraphyton cookei
  MIC / MEC: 0.5 µg/mL
Cryptococcus gattii [5]; 5FC:10-ZOL
  FICI: 1
Cryptococcus gattii [5]; CAS:10-ZOL
  FICI: 0.5
Cryptococcus gattii [5]; FLC:10-ZOL
  FICI: 1.5
Cryptococcus gattii [5]; KET:10-ZOL
  FICI: 0.5
Cryptococcus gattii [5]; VOR:10-ZOL
  FICI: 0.8
Cryptococcus gattii [5]; with 5FC
  bisphosphonate MICc: 0.25
Cryptococcus gattii [5]; with AMB
  bisphosphonate MICc: 0.125
Cryptococcus gattii [5]; with CAS
  bisphosphonate MICc: 0.125
Cryptococcus gattii [5]; with FLC
  bisphosphonate MICc: 0.5
Cryptococcus gattii [5]; with ITR
  bisphosphonate MICc: 0.125
Cryptococcus gattii [5]; with KET
  bisphosphonate MICc: 0.125
Cryptococcus gattii [5]; with VOR
  bisphosphonate MICc: 0.125
Cryptococcus tetragattii; CAS:10-ZOL
  FICI: 2.13
Cryptococcus tetragattii; KET:10-ZOL
  FICI: 0.5
Cryptococcus tetragattii; VOR:10-ZOL
  FICI: 1.48
Cryptococcus tetragattii; with 5FC
  bisphosphonate MICc: 0.5
Cryptococcus tetragattii; with AMB
  bisphosphonate MICc: 0.063
Cryptococcus tetragattii; with CAS
  bisphosphonate MICc: 1
Cryptococcus tetragattii; with FLC
  bisphosphonate MICc: 0.125
Cryptococcus tetragattii; with ITR
  bisphosphonate MICc: 0.125
Cryptococcus tetragattii; with KET
  bisphosphonate MICc: 0.125
Cryptococcus tetragattii; with VOR
  bisphosphonate MICc: 0.5
[6]; FLC:10-ZOL
  FICI: 1
[6]; ITR:10-ZOL
  FICI: 1.55
[6]; KET:10-ZOL
  FICI: 0.61
[6]; VOR:10-ZOL
  FICI: 1.3
[6]; with 5FC
  bisphosphonate MICc: 0.5
[6]; with AMB
  bisphosphonate MICc: 0.125
[6]; with CAS
  bisphosphonate MICc: 1
[6]; with FLC
  bisphosphonate MICc: 0.5
[6]; with ITR
  bisphosphonate MICc: 0.5
[6]; with KET
  bisphosphonate MICc: 0.125
[6]; with VOR
  bisphosphonate MICc: 0.25
Fusarium solani; 5FC:10-ZOL
  FICI: ≥4
Fusarium solani; CAS:10-ZOL
  FICI: 2
Fusarium solani; VOR:10-ZOL
  FICI: 0.53
Fusarium solani; with 5FC
  bisphosphonate MICc: 1
Fusarium solani; with AMB
  bisphosphonate MICc: 0.25
Fusarium solani; with CAS
  bisphosphonate MICc: 4
Fusarium solani; with FLC
  bisphosphonate MICc: 0.5
Fusarium solani; with ITR
  bisphosphonate MICc: 0.5
Fusarium solani; with KET
  bisphosphonate MICc: 2
Fusarium solani; with VOR
  bisphosphonate MICc: 0.125
Pichia kudriavzevii; AMB:10-ZOL
  FICI: 1
Pichia kudriavzevii; KET:10-ZOL
  FICI: 1.5
Pichia kudriavzevii; VOR:10-ZOL
  FICI: 1.03
Pichia kudriavzevii; with 5FC
  bisphosphonate MICc: 1
Pichia kudriavzevii; with AMB
  bisphosphonate MICc: 2
Pichia kudriavzevii; with CAS
  bisphosphonate MICc: 0.5
Pichia kudriavzevii; with FLC
  bisphosphonate MICc: 0.5
Pichia kudriavzevii; with ITR
  bisphosphonate MICc: 0.25
Pichia kudriavzevii; with KET
  bisphosphonate MICc: 2
Pichia kudriavzevii; with VOR
  bisphosphonate MICc: 0.125
Candida tropicalis; 5FC:10-ZOL
  FICI: 1.5
Candida tropicalis; CAS:10-ZOL
  FICI: ≥4
Candida tropicalis; VOR:10-ZOL
  FICI: 0.5
Candida tropicalis; with 5FC
  bisphosphonate MICc: 1
Candida tropicalis; with AMB
  bisphosphonate MICc: 0.125
Candida tropicalis; with CAS
  bisphosphonate MICc: 1
Candida tropicalis; with FLC
  bisphosphonate MICc: 1
Candida tropicalis; with ITR
  bisphosphonate MICc: 0.125
Candida tropicalis; with KET
  bisphosphonate MICc: 0.25
Candida tropicalis; with VOR
  bisphosphonate MICc: 0.5
Candida dubliniensis; CAS:10-ZOL
  FICI: 1.18
Candida dubliniensis; KET:10-ZOL
  FICI: 0.43
Candida dubliniensis; VOR:10-ZOL
  FICI: 1.55
Candida dubliniensis; with 5FC
  bisphosphonate MICc: 0.25
Candida dubliniensis; with AMB
  bisphosphonate MICc: 0.125
Candida dubliniensis; with CAS
  bisphosphonate MICc: 0.125
Candida dubliniensis; with FLC
  bisphosphonate MICc: 0.25
Candida dubliniensis; with ITR
  bisphosphonate MICc: 0.125
Candida dubliniensis; with KET
  bisphosphonate MICc: 0.125
Candida dubliniensis; with VOR
  bisphosphonate MICc: 1
Aspergillus niger [7]; 5FC:10-ZOL
  FICI: ≥4
Aspergillus niger [7]; AMB:10-ZOL
  FICI: 2.17
Aspergillus niger [7]; CAS:10-ZOL
  FICI: 1
Aspergillus niger [7]; with 5FC
  bisphosphonate MICc: 1
Aspergillus niger [7]; with AMB
  bisphosphonate MICc: 1
Aspergillus niger [7]; with CAS
  bisphosphonate MICc: 2
Aspergillus niger [7]; with FLC
  bisphosphonate MICc: 0.5
Aspergillus niger [7]; with ITR
  bisphosphonate MICc: 1
Aspergillus niger [7]; with KET
  bisphosphonate MICc: 2
Aspergillus niger [7]; with VOR
  bisphosphonate MICc: 0.5
Aspergillus terreus [8]; 5FC:10-ZOL
  FICI: 1.5
Aspergillus terreus [8]; CAS:10-ZOL
  FICI: 3
Aspergillus terreus [8]; FLC:10-ZOL
  FICI: 0.53
Aspergillus terreus [8]; ITR:10-ZOL
  FICI: 1
Aspergillus terreus [8]; KET:10-ZOL
  FICI: 1.5
Aspergillus terreus [8]; VOR:10-ZOL
  FICI: 1.5
